Entries after “also recorded” stand apart in the source; their conditions may differ.
Key:
[1] = In vitro DPPH radical scavenging method (THC with or without THP); type: biochemical
Description: The bioenhancing potential of THP on the free-radical scavenging properties of topically applied THC was evaluated. In this in vitro DPPH radical scavenging method, the ability of an anti-oxidant to bind and inactivate the 1,1 diphenyl-2-picrylhydrazyl radical, or DPPH, was measured. DPPH is considered an example of a very stable free radical. The control sample contained 0.01% of THC while active samples contained 0.01% of THC with THP concentrations ranging from 0.1%-0.0001%. Additionally, controls containing various concentrations of THP alone were also tested for DPPH binding.

[2] = Primary skin irritation potential, Draize's method; type: in vivo, New Zealand White rabbits
Description: The study was designed to determine the primary skin irritation potential on New Zealand White rabbits following the guidelines provided by Gaitonde Committee, CIB, New Delhi, India
New Zealand White, healthy, adult male and female rabbits, each group comprising of 3 randomly selected animals of each sex.
0.5 ml of the test substance was applied to dehaired intact and abraded skin sites of each test animal. Care was taken to note that the abrasions penetrated the Stratum corneum, but not the dermis. A gauze patch was secured over each treated area using tape. The patch and unabsorbed test substance were removed after 24 hours. Each site of application was carefully observed and the reaction evaluated according to Draize's method at 24 and 72 hours.

O=C(CCCCc1ccc2c(c1)OCO2)N1CCCCC1 [Tetrahydropiperine, 1-[5-(1,3-Benzodioxol-5 yl)-1-oxo-pentanoyl]-Piperidine]
enhancement of the antioxidant properties of THC as compared to THC alone ([1]; 0.01% THC with THP 0.1%-0.0001%): up to 30%
THC bioenhancing activity ([1]; 0.01% THC with THP at highest dilution of 0.0001%): still displayed some beneficial THC bioenhancing activity
anti-oxidant properties (DPPH binding) ([1]; THP alone, various concentrations): did not show any significant anti-oxidant properties
skin reaction (erythema, edema, irritation) ([2]; 0.5 ml on intact and abraded skin sites, patch 24 hours, evaluated at 24 and 72 hours): No erythema or edema; also recorded: did not cause any irritation
primary skin irritation score ([2]; intact and abraded skin, Draize's method, 24 and 72 hours): zero

Source: patent US6849645B2, “Method of increased bioavailability of nutrients and pharmaceutical preparations with tetrahydropiperine and its analogues and derivatives” (priority 2000, dated 2005)
